The source of these data is patent US20060052370A1, “Methods and compositions for treating nociceptive pain” (priority 2004, published 2006).

For series [1] the following is noted: humans; cited from earlier work.
The conditions of series [2]: memantine and morphine combination.
The conditions of series [3]: humans; cited from earlier work. This is another data set of the same source.

Entries after “also recorded” stand apart in the source; their conditions may differ. Like-named read-outs stand apart in the source and are kept apart here.

In the case of `CC(N)C12CC3CC(CC(C3)C1)C2` (stereo not shown) [Rimantadine, 1-(1-aminoethyl)adamantane], in series [1], the “Human PK (t½)” value is 25 h and the Tmax was 6 h.

On to `CC12CC3CC(C)(C1)CC(N)(C3)C2` [Memantine, 1-amino-3,5-dimethyladamantane], for which the cum. fraction in series [2] (Time 1) was determined as 0.2; in series [2] (Time 2) it was 0.3; in series [2] (Time 4) it was 0.4; in series [2] (Time 8) it was 0.5; in series [2] (Time 12), 0.6; in series [2] (Time 16), 0.7. Further, the cum. fraction in series [2] (Time 20) turned out to be 0.8; in series [2] (Time 24), 0.9. Also, the Tmax in series [1] was 3 h. Besides, the “Dose Dependent Tox” value in series [3] is recorded as “Dose escalation; also recorded: hallucination”.

With `NC12CC3CC(CC(C3)C1)C2` [Amantadine, 1-amino-adamantane], in series [1], the “Human PK (t½)” value was 15 h and the Tmax is 3 h.

As for `CN1CC[C@]23c4c5ccc(O)c4O[C@H]2[C@@H](O)C=C[C@H]3[C@H]1C5` [Morphine], the cum. fraction in series [2] (Time 1) is listed as 0.2; in series [2] (Time 2), 0.3; in series [2] (Time 4), 0.4; in series [2] (Time 8), 0.5; in series [2] (Time 12), 0.6; in series [2] (Time 16), 0.7. The results for the cum. fraction in series [2] (Time 20) and in series [2] (Time 24) were 0.8 and 0.9, respectively.

What is called Tmax is the time from dosing to the highest level.
